Test results from ChEMBL document CHEMBL1201862, “PubChem BioAssay data set” (2004).
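A five-concentration, 48-hour dose response in 96-well plates underlies each endpoint, interpolated linearly between surrounding concentrations. At the GI50, growth is halved.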 Activity calls are given as the source filed them. Rule as the data show it: active = GI50 up to about 1.1 µM and inactive = higher.

Assays:
Test in all cases: NCI anticancer screen, dose series, 48 h
[1] = test system: UO-31
[2] = test system: SF-268
[3] = test system: K562
[4] = test system: LOX IMVI
[5] = test system: 786-0
[6] = test system: RXF 393
[7] = test system: CCRF-CEM
[8] = test system: OVCAR-4
[9] = test system: U-251
[10] = test system: Hs-578T
[11] = test system: OVCAR-5
[12] = test system: UACC-257
[13] = test system: NCI-H460
[14] = test system: HCT-116
[15] = test system: MOLT-4
[16] = test system: EKVX
[17] = test system: HL-60
[18] = test system: SK-MEL-2
[19] = test system: SW-620

Measured: GI50

S=C1CC(c2ccccc2)Sc2ccc(Cl)cc2N1 (stereo unspecified)
inactive: [1] 71.3 µM | [2] 37.9 µM | [3] 16.2 µM | [4] > 100 µM | [5] 24.3 µM | [6] 2.99 µM | [7] > 100 µM | [8] 54.5 µM | [9] 16.5 µM | [10] 16.4 µM | [11] > 100 µM | [12] 18.1 µM | [13] 21.2 µM | [14] 21.2 µM | [15] 18.7 µM | [16] 50.7 µM | [17] 24.4 µM

CCOC(=O)N1N(c2ccccc2)C(=O)C1(c1ccccc1)c1ccccc1
inactive: [1] 51.6 µM | [2] > 100 µM | [3] 34.8 µM | [18] 20.4 µM | [4] 70.6 µM | [5] > 100 µM | [19] > 100 µM | [6] 28.8 µM | [7] 66.5 µM | [8] > 100 µM | [9] 89.1 µM | [10] > 100 µM | [11] > 100 µM | [12] > 100 µM | [14] 17.1 µM | [15] 20.1 µM | [16] 48.1 µM | [17] 8.3 µM

C=C(C)[C@@H]1CCC2=C[C@@H](OC2=O)[C@@H](C(=C)C)C2=CC(C(=O)O)=C(C1)O2
inactive: [1] 26 µM | [2] > 100 µM | [3] 41 µM | [18] > 100 µM | [4] 42 µM | [5] > 100 µM | [19] > 100 µM | [6] > 100 µM | [7] 38.7 µM | [8] > 100 µM | [10] > 100 µM | [11] > 100 µM | [12] > 100 µM | [14] 60.4 µM | [15] 46.3 µM | [16] > 100 µM | [17] 78 µM

c1ccc2[nH]c(C3CCCCO3)nc2c1 (stereo unspecified)
inactive: [1] > 100 µM | [2] > 100 µM | [3] > 100 µM | [18] > 100 µM | [4] > 100 µM | [5] > 100 µM | [19] > 100 µM | [6] > 100 µM | [7] > 100 µM | [8] > 100 µM | [9] > 100 µM | [10] > 100 µM | [11] > 100 µM | [12] > 100 µM | [14] > 100 µM | [15] > 100 µM | [16] > 100 µM | [17] > 100 µM

CC(=O)NC(NCCN)(c1ccccc1)c1ccccc1
inactive: [1] 48 µM | [2] > 100 µM | [3] > 100 µM | [4] > 100 µM | [5] > 100 µM | [19] > 100 µM | [6] > 100 µM | [7] > 100 µM | [8] > 100 µM | [9] > 100 µM | [10] > 100 µM | [11] 67.9 µM | [12] > 100 µM | [13] > 100 µM | [14] > 100 µM | [15] > 100 µM | [16] > 100 µM | [17] > 100 µM

CCCC(=O)NC(Nc1ccc(S(=O)(=O)Nc2cc(C)on2)cc1)(C(=O)OCC)C(F)(F)F (stereo unspecified)
inactive: [1] > 100 µM | [2] > 100 µM | [3] > 100 µM | [18] > 100 µM | [4] > 100 µM | [5] > 100 µM | [19] > 100 µM | [6] > 100 µM | [7] > 100 µM | [8] > 100 µM | [9] > 100 µM | [10] > 100 µM | [11] > 100 µM | [12] > 100 µM | [14] > 100 µM | [15] 55.3 µM | [16] > 100 µM | [17] > 100 µM
